# According to PMC12692169, “Identification of Novel TAT-I24-Related Peptides with Antiviral Activities” (International Journal of Molecular Sciences, 2025):
# Like-named read-outs stand apart in the source and are kept apart here. Residues, ends and D or L forms follow the SMILES beside them.
# Tests used:
# [1] = system: red blood cells (RBC); assay: RBC swelling (enlarged pellet after centrifugation); conditions: 1 h; for RBC swelling: peptides diluted in PBS (absence of serum), up to 20 µM, pellet size after centrifugation
# [2] = system: Baculovirus/HEK293; conditions: for IC50: 24 h; for fold higher IC50 value compared to TAT-I24, baculovirus-transduced HEK293 cells: ratio to TAT-I24 IC50
# [3] = system: plasmid-DNA (dsDNA); assay: Fluorescence-based dsDNA-binding assay (SYBR Gold, plasmid DNA); conditions: TAT-I24 as reference, three independent experiments in duplicates
# Description: We also included the TAT peptide, which binds DNA [34, 35].
# Peptides were incubated with plasmid-DNA in the presence of SYBR^TM Gold dye. Reduction in fluorescence indicates binding of peptides to DNA. […] Curve fitting was performed using GraphPad Prism software.
# DNA binding assay was performed, as described previously [26].
# [4] = system: mouse cytomegalovirus (MCMV)/NIH/3T3 cells; conditions: 72 h
# [5] = system: red blood cells (RBC); conditions: RBC 1 h 37 °C; for haemolysis: OD 450 nm of supernatant
# Description: Figure 4 Effect of peptides on haemolysis and RBC swelling. (A,B) RBCs were isolated and treated in conical 96-well plates with peptides diluted in PBS or in 10% donor serum for one hour. OD [450 nm] was determined in the supernatants after centrifugation of the plates. Mean ± SD from two experiments in triplicates are shown. […] Dashed lines indicate background OD. (C) Swelling of RBC after treatment with dilutions of peptides in PBS for one hour and centrifugation of the plates. Red wells indicate an enlarged cell pellet due to swelling of the RBCs. Sequences of the peptides are shown at the right and are indicated in red with the TAT fusion partner indicated in blue.
# Whole blood was collected from a healthy volunteer after informed consent by venipuncture into K2E K2EDTA VacuetteTM tubes (Greiner Bio-One, Kremsmünster, Austria) with 4 mL blood. The assay for haemolysis was adapted from Sæbo et al. and performed as described previously. In brief, blood was centrifuged at 1000× g for 10 min, and plasma kept for further use, followed by resuspension of red blood cells (RBC) in PBS and centrifugation for three times. RBC were seeded at a cell number of 1 × 10^7 cells/100 µL PBS per well into conical 96-well plates (ThermoFisher, Darmstadt, Germany) and incubated with 100 µL of 1:2 peptide dilutions starting from 40 µM either in PBS or 10% donor serum. Plates were incubated at 37 °C for one hour before at 1000× g for 5 min. Supernatants were then transferred to flat 96-well plates and optical density (OD) was determined at 450 nm using a Glo-Max®-Multi Detection System (Promega, Mannheim, Germany). As positive control, cells were lysed with 0.5% Triton X-100. Images from centrifuged plates were taken using a Kodak PIXPRO camera (Rochester, NY, USA).
Compound,RBC swelling [1],IC50 [2] [nM],"fold higher IC50 value compared to TAT-I24, baculovirus-transduced HEK293 cells [2]",dsDNA-binding (reduction in SYBR Gold fluorescence) [3],IC50 [4] [nM],haemolysis ([5]; 2.5 µM peptide diluted in PBS) [%],haemolysis ([5]; 5 µM peptide diluted in PBS) [%],haemolysis ([5]; 10 µM peptide diluted in PBS) [%],"haemolysis ([5]; 20 µM peptide diluted in PBS, two experiments in triplicates) [%]",haemolysis in the presence of 10% serum ([5]; peptide diluted in 10% donor serum),RBC swelling in the presence of serum ([1]; peptides diluted in 10% human/donor serum)
CC(C)C[C@H](NC(=O)[C@H](CCC(N)=O)NC(=O)[C@@H]1CCCN1C(=O)[C@H](CO)NC(=O)[C@H](CS)NC(=O)[C@H](CCC(N)=O)NC(=O)[C@@H]1CCCN1C(=O)[C@@H]1CCCN1C(=O)[C@H](CCCNC(=N)N)NC(=O)[C@H](CCCNC(=N)N)NC(=O)[C@H](CCCNC(=N)N)NC(=O)[C@H](CCC(N)=O)NC(=O)[C@H](CCCNC(=N)N)NC(=O)[C@H](CCCNC(=N)N)NC(=O)[C@H](CCCCN)NC(=O)[C@H](CCCCN)NC(=O)[C@H](CCCNC(=N)N)NC(=O)CN)C(=O)N[C@@H](C)C(=O)N1CCC[C@H]1C(=O)N[C@@H](Cc1ccccc1)C(=O)N[C@@H](CS)C(=O)O [TAT-M41] (H-GRKKRRQRRRPPQCSPQLAPFC-OH; N-terminus and C-terminus assumed),did not cause RBC swelling in the absence of serum even at 20 µM,434,approximately 20 fold,less dsDNA-binding,–,–,–,–,–,–,–
CC(C)C[C@H](NC(=O)[C@H](CO)NC(=O)[C@H](CC(C)C)NC(=O)[C@H](CCC(N)=O)NC(=O)[C@H](CS)NC(=O)[C@H](CCC(N)=O)NC(=O)[C@@H]1CCCN1C(=O)[C@@H]1CCCN1C(=O)[C@H](CCCNC(=N)N)NC(=O)[C@H](CCCNC(=N)N)NC(=O)[C@H](CCCNC(=N)N)NC(=O)[C@H](CCC(N)=O)NC(=O)[C@H](CCCNC(=N)N)NC(=O)[C@H](CCCNC(=N)N)NC(=O)[C@H](CCCCN)NC(=O)[C@H](CCCCN)NC(=O)[C@H](CCCNC(=N)N)NC(=O)CN)C(=O)N[C@@H](C)C(=O)N1CCC[C@H]1C(=O)N[C@@H](Cc1ccc(O)cc1)C(=O)N[C@@H](CS)C(=O)O [TAT-M42] (H-GRKKRRQRRRPPQCQLSLAPYC-OH; N-terminus and C-terminus assumed),did not cause RBC swelling in the absence of serum even at 20 µM,378,approximately 20 fold,less dsDNA-binding,–,–,–,–,–,–,–
CC(C)C[C@H](NC(=O)[C@H](C)NC(=O)[C@H](Cc1ccc(O)cc1)NC(=O)[C@H](Cc1ccccc1)NC(=O)[C@H](C)NC(=O)[C@H](CC(C)C)NC(=O)[C@H](Cc1ccc(O)cc1)NC(=O)[C@@H]1CCCN1C(=O)[C@H](CCCNC(=N)N)NC(=O)[C@H](CCCNC(=N)N)NC(=O)[C@H](CCCNC(=N)N)NC(=O)[C@H](CCC(N)=O)NC(=O)[C@H](CCCNC(=N)N)NC(=O)[C@H](CCCNC(=N)N)NC(=O)[C@H](CCCCN)NC(=O)[C@H](CCCCN)NC(=O)[C@H](CCCNC(=N)N)NC(=O)CN)C(=O)N[C@@H](C)C(=O)N[C@@H](Cc1ccccc1)C(=O)N[C@@H](Cc1ccc(O)cc1)C(=O)N[C@@H](C)C(=O)N[C@@H](CS)C(=O)O [TAT-M214] (H-GRKKRRQRRRPYLAFYALAFYAC-OH),caused RBC swelling at higher concentrations,25,–,–,3670,14,29,37,43,not in the presence of 10% serum,–
CC(C)C[C@H](NC(=O)[C@H](Cc1ccccc1)NC(=O)[C@H](CS)NC(=O)[C@H](Cc1ccccc1)NC(=O)[C@@H]1CCCN1C(=O)[C@H](CO)NC(=O)[C@H](CCC(N)=O)NC(=O)[C@@H]1CCCN1C(=O)[C@@H]1CCCN1C(=O)[C@H](CCCNC(=N)N)NC(=O)[C@H](CCCNC(=N)N)NC(=O)[C@H](CCCNC(=N)N)NC(=O)[C@H](CCC(N)=O)NC(=O)[C@H](CCCNC(=N)N)NC(=O)[C@H](CCCNC(=N)N)NC(=O)[C@H](CCCCN)NC(=O)[C@H](CCCCN)NC(=O)[C@H](CCCNC(=N)N)NC(=O)CN)C(=O)N[C@@H](C)C(=O)N[C@@H](Cc1ccccc1)C(=O)N[C@@H](CS)C(=O)N[C@@H](Cc1ccccc1)C(=O)O [TAT-T7] (H-GRKKRRQRRRPPQSPFCFLAFCF-OH; N-terminus and C-terminus assumed),caused RBC swelling at higher concentrations,17,–,–,1130,–,–,–,–,–,not in the presence of donor serum
